# From PMC9841524, “Structure-Based Rational Design of Small α-Helical Peptides with Broad-Spectrum Activity against Multidrug-Resistant Pathogens” (Journal of Medicinal Chemistry, 2022)
# Where no end group is shown, it is not given here.
# Assays:
# [1] = system: P. aeruginosa (ATCC 27883); assay: MIC, standard microtiter dilution (CLSI); type: cell-based, Pseudomonas aeruginosa; details: broth microdilution (CLSI), CAMHB, 37 °C, 24 h
# In short: (§1)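 In this CLSI-recommended assay, peptides were serially diluted twofold and combined with bacteria at 10^6 CFU/mL in cation-adjusted Mueller Hinton Broth.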
# [2] = system: MRSA (ATCC BAA-1556); assay: Flow cytometric analysis of PI-stained cells; type: cell-based, methicillin-resistant S. aureus; details: flow cytometry; for PI fluorescence of MRSA cells at MIC: 1 h treatment, 10^7 CFU/mL
# Procedure: The flow cytometric analysis was performed by using MRSA (ATCC BAA-1556) and E. coli (ATCC BAA-2452) cultures grown to the mid log phase in Mueller Hinton broth (HIMEDIA). Before treatment, bacterial cells were washed thrice with buffer (10 mM Tris, pH 7.4) and resuspended in the same buffer to obtain 10^7 CFU/mL bacterial suspensions. Test peptides (8a and 8b) and the standard antibiotics (daptomycin and polymyxin B) at MIC and 4 × MIC were incubated with bacterial suspension for 1 h. Following the treatment with test peptides, the cells were pelleted by centrifugation at 3000g for 15 min in a microcentrifuge. The supernatant was decanted, and the cells were washed with PBS several times and then incubated with PI ([…]) in the dark for 15 min at 37 °C. FACS analysis of the stained bacterial cells was performed using a FACscan flow cytometer (BD Accuri C6, BD Biosciences, California, USA), and data were analyzed by using Cell Quest software.
# [3] = Calcein dye leakage assay; details: after 100 min, 10% Triton X-100 = 100%, triplicate
# Procedure: The calcein dye leakage assay was conducted using the large unilamellar vesicles (LUVs) composed of 1,2-dioleoyl-sn-glycero-3-phosphocholine (DOPC) and 1,2-dioleoyl-sn-glycero-3-phosphoglycerol (DOPG) to mimic the bacterial membrane (DOPC/DOPG, 7:3, w/w) or mammalian membrane (DOPC/cholesterol, 10:1, w/w), as we described previously.[18] At various concentrations (5, 10, 20, 30, and 50 μg/mL) test peptides 8a and 8b (50 μL) mixed with liposome suspension (50 μL), and fluorescence intensity was read every 10 min for 100 min at an excitation wavelength of 490 nm and an emission wavelength of 520 nm on a SpectraMax M5 multi-mode microplate reader. Considering calcein release from liposomes treated with a 10% solution (w/v) of Triton X-100 as 100%, the apparent percentage of dye leakage was calculated using the following formula [drawing 2] where F is the intensity measured at a given peptide concentration, F0 is the background intensity of the liposome sample, and Ft is the intensity after lysis induced by Triton X-100.
# [4] = system: MRSA (ATCC BAA-1556); assay: Bactericidal kinetic assay; type: cell-based, methicillin-resistant S. aureus; details: for killing of MRSA cells at 4 × MIC: after 4 h of incubation
# Procedure: The time course of bacterial killing was studied by the exposure of overnight grown cultures of MRSA (ATCC BAA-1556) and E. coli (ATCC BAA-2452) to 8a and 8b at the MIC and 4× the MIC in Muller Hinton media. Bacterial cells (2 × 10^6 CFU/mL) were treated with peptides and standard antibiotics and incubated at 37 °C. Aliquots were withdrawn at a 30 min time interval for 4 h and plated on the agar plate to determine the number of viable bacterial colonies. Data were obtained from two independent experiments performed in triplicate.
# [5] = system: nonresistant and MDR S. pneumoniae; details: Table 2
# In short: as §1
# [6] = system: S. pneumoniae (ATCC 49619); details: Gram-positive; CLSI microdilution, CAMHB + 2.5% lysed horse blood, 37 °C, 24 h; highest MIC of three independent experiments in triplicate
# In short: as §1
# [7] = 10^6 CFU/mL, highest MIC of three independent experiments in triplicate
# [8] = bacterial membrane mimicking LUVs
# [9] = mammalian membrane mimicking LUVs
compound,measurement,setting,value
KWIKKWIKWWKK-NH2 [7b],"MIC, P. aeruginosa (ATCC 27883)",[1]; [7],6.2 µg/mL
same,"MIC, P. aeruginosa (ATCC 27883)",[1]; value in parentheses (μM),3.53 µM
KWLKKWLKWWKK-NH2 [8b],PI fluorescence of MRSA cells at MIC,[2],42.1%
same,"calcein dye leakage, 5 μg/mL",[3]; [8],approximately 30%
same,"calcein dye leakage, 50 μg/mL",[3]; [9],10%
same,killing of MRSA cells at 4 × MIC,[4],completely eliminated
same,"MIC, P. aeruginosa (ATCC 27883)",[1]; [7],6.2 µg/mL
same,"MIC, P. aeruginosa (ATCC 27883)",[1]; value in parentheses (μM),3.53 µM
same,"MIC, nonresistant and MDR S. pneumoniae",[5],12.5 µg/mL
same,"MIC, S. pneumoniae (ATCC 49619)",[6],12.5 µg/mL
RWLRRWLRWWRR-NH2 [8a],PI fluorescence of MRSA cells at MIC,[2],34.2%
same,"calcein dye leakage, 5 μg/mL",[3]; [8],approximately 30%
same,"calcein dye leakage, 50 μg/mL",[3]; [9],19%
same,killing of MRSA cells at 4 × MIC,[4],completely eliminated
same,"MIC, P. aeruginosa (ATCC 27883)",[1]; [7],12.5 µg/mL
same,"MIC, P. aeruginosa (ATCC 27883)",[1]; value in parentheses (μM),6.49 µM
"CCCCCCCCCC(=O)N[C@@H](Cc1c[nH]c2ccccc12)C(=O)N[C@H](CC(N)=O)C(=O)N[C@@H](CC(=O)O)C(=O)N[C@@H]1C(=O)NCC(=O)N[C@@H](CCCN)C(=O)N[C@@H](CC(=O)O)C(=O)N[C@H](C)C(=O)N[C@@H](CC(=O)O)C(=O)NCC(=O)N[C@H](CO)C(=O)N[C@@H]([C@H](C)CC(=O)O)C(=O)N[C@@H](CC(=O)c2ccccc2N)C(=O)O[C@@H]1C [daptomycin, reference compound]",PI-stained population of MRSA cells,"[2]; MIC and 4 × MIC, 1 h",did not significantly increase
same,"calcein dye leakage, 50 μg/mL",[3]; [8],42%
same,"calcein dye leakage, 50 μg/mL",[3]; [9],around 7%
same,time to complete killing of MRSA at 4 × MIC,[4]; 4 × MIC,3 h
same,"MIC, S. pneumoniae (ATCC 49619)",[6],12.5 µg/mL
RWIRRWIRWWRR-NH2 [7a],"MIC, P. aeruginosa (ATCC 27883)",[1]; [7],6.2 µg/mL
same,"MIC, P. aeruginosa (ATCC 27883)",[1]; value in parentheses (μM),3.22 µM
